Results on one molecule are retold here after patent US20240173389A1, “Compositions and Methods For Reducing Immune Intolerance” (LAPIX THERAPEUTICS, INC., priority 2021, published 2024).

In assay [1] the test system is B57BL6 Mice. As to the kind of experiment: Anti-FVIII titer analysis in mice given FVIII co-mixed with compound SC QW 4 weeks, then FVIII re-challenge (Example 1). The format is in vivo. How it is done:
OPLT was dissolved in sterile PBS, and pH was adjusted to approximately 7.5. OPLS, a comparator compound, was dissolved in sterile PBS, and pH was adjusted to approximately 7.5. FVIII in PBS was used as a control. For treatment, FVIII was co-mixed with OPLT, OPLS or diluted in PBS before administration, as per group assignment for each animal. For re-challenge, FVIII was administered alone SC to all animals regardless of group assignment. […] For a head-to-head comparison, 5 mg/injection was selected for OPLT. FVIII was dosed at 1 μg/injection.
The study was conducted in two parts: a treatment phase and a re-challenge phase. The objective of the treatment phase was to test the ability of OPLT to reduce the immunogenicity of FVIII as an antigen compared to animals administered FVIII or FVIII+OPLS. Animals were injected with FVIII, FVIII+OPLT, or FVIII+OPLS SC QW for 4 weeks. Blood samples were collected for anti-FVIII titer analysis after a one-week washout period from the last dose. The objective of the re-challenge phase of the study was to evaluate the duration of tolerance. Animals that have been successfully tolerized toward FVIII will not mount a robust immune response towards FVIII upon subsequent exposure to FVIII. After the washout period, animals were injected with (1 μg) FVIII SC QW for 2 weeks. Blood samples were collected one week after each FVIII injection for anti-FVIII titer analysis.

For assay [2], the system named is RAW264.7 mouse monocyte macrophage cells. As to the kind of experiment: SAR screen in RAW 264.7 cells with FVIII antigen, TNF-α ELISA (Example 5). The format is cell-based. The settings on record: free compounds dosed in mM range, FVIII antigen. The text has this:
RAW264.7 mouse monocyte macrophage cells were exposed to an increasing concentration of selected compounds in the presence of human plasma-derived FVIII as a model antigen protein. TNF-α and TGF-β production were monitored.
All molecules were formulated in RPMI media in aseptic conditions. The pH was adjusted to approximately 7.5 before dosing cells. 1,2-dimyristoyl-sn-glycero-3-phosphocholine (DM PC):PS liposomes were made at 70:30 molar ratio to make “PS” liposomes.
RAW 264.7 cells were prepared, cultured, and dosed. Cells were seeded at 4×10^5 cells/well. OPLS, OPLT and L-homocysteic acid (LHA) were dosed at 100, 85, 70, 60, 50, 30, 10, 3, 1, 0.3, 0.1, 0.03 and 0.01 mM, or at 100, 85, 70, 60, 50, 30, 10, 3 and 1 mM, as indicated. O-Benzyl-L-serine (OBLS), S-phenyl-L-cysteine (SPLC), S-benzyl-L-cysteine (SBLC) and OBLT were dosed at 100, 85, 70, 60, 50, 30, 10, 3, 1, 0.3, 0.1, 0.03, 0.01, 0.003 and 0.001 μM. Finally, 100 μl of 40 μg/ml of FVIII as a sample antigen was added to each cell. LPS and free protein were used as positive and baseline controls, respectively. TNF-α and TGF-β ELISA were conducted as per the manufacturer's instructions (R & D Systems).
On the technique in general: In an ELISA, binding on a coated surface is turned into a signal by an enzyme label.

Setting [3] is: weeks 1 and 2 of re-challenge with FVIII alone SC QW.

Entries after “also recorded” stand apart in the source; their conditions may differ.

Consider `N[C@@H](Cc1ccc(OP(=O)(O)O)cc1)C(=O)O` [OPLT, O-phospho-L-tyrosine], for which the “inducing sustained immunotolerization toward FVIII” value in assay [1] (OPLT versus OPLS, 5 mg/injection each) was “more effective than OPLS”. Also, the “anti-FVIII titers versus FVIII control group” value in assay [1] (end of treatment after one-week washout) is recorded as “statistically lower than the FVIII control group”. Moreover, in assay [1] (end of treatment after one-week washout, 5 mg/injection + FVIII SC QW 4 weeks, FVIII control 8/8), the “animals that developed anti-FVIII antibodies” value is reported as 3/8. Further, in assay [1] (setting [3]), the “average anti-FVIII titer in re-challenge period” value is “lower titer than animals in the OPLS+FVIII and the FVIII control group”; the “immune response to FVIII re-challenge” value is “did not develop a robust immune response”. For the same molecule, in assay [2], the “TNF-α production (suppression) versus OPLS” value is reported as “suppressed TNF-α production at a lower dose than OPLS; also recorded: more potent inhibitors of TNF-α”.
